Experimental data reported in patent US20260294964A1, “PHARMACEUTICALS CONTAINING CHELATORS WITH STRONG ZN IONS-HOLDING FEATURE FOR THE TREATMENT OF SYMPTOMS AND DISEASES CAUSED BY MICROORGANISMS/DISEASES CAUSED BY TOXINS OR NEUROTOXINS/CANCER/SEVERAL SYNDROMES” (priority 2023, published 2026).
“Also recorded” adds a separate entry of the source. Like-named read-outs stand apart in the source and are kept apart here.

How the values were obtained:
[1] = test system: microorganisms that decompose organic matter (bacteria/fungi); test: Culture of microorganisms that decompose organic matter; type: cell-based; settings: media with growth promoting substances
[2] = test system: loss of taste in Covid 19; test: Treatment of loss of taste in Covid 19; type: in vivo, human; settings: solution containing 2% Ca EDTA sucked for a few minutes
[3] = test system: Boraras Micros fish
[4] = test system: Boraras Micros fish; test: Protection of Boraras Micros fish from CuCl2 by chelators; type: in vivo; settings: 0.4 ppm CuCl2 + a few ppm to more than 10 ppm of chelator
[5] = test system: pathogenic microorganisms; test: Inhibition/killing of pathogenic microorganisms in water with Boraras Micros fish infected from dead fish; type: in vivo; settings: for appearance of water after 6 days / fish outcome after 6 days: 10 ppm Ampicillin / 20 ppm Bactrim / 100 ppm triethylenetetramine diethylenetriaminepentaacetate / 300 Mg EDTA / 600 ppm Ca EDTA / combinations as in label
[6] = Safety of Ca EDTA in adults; type: in vivo, human; settings: 20 g for each time, 4 hours apart
[7] = Metallic Cu suspension test with 1% Na ascorbate (Cu ion complex formation); type: physicochemical; settings: 0.1% CuCl2, alone or with several percent of chelator; excess 1% Na ascorbate
[8] = type: physicochemical, animal/human blood
[9] = test system: mice; type: in vivo, mouse; settings: 0.3% in drinking water from 12 hours after flocoumafen
[10] = test system: headache; test: Treatment of headaches of unknown cause; type: in vivo, human; settings: 0.5 g oral, adult
[11] = test system: Boraras Micros fish; test: Neutralization of toxins/neurotoxins in Boraras Micros fish; type: in vivo
[12] = test system: dry eyes/eye pain/red eyes; test: Treatment of dry eyes/eye pain/red eyes; type: in vivo, human; settings: 0.1% eye drops, 2 to 6 times a day
[13] = test system: toxins/neurotoxins; microorganisms; settings: processed foods

O=C(O)CN(CCN(CC(=O)O)CC(=O)O)CC(=O)O.[Ca] [Ca EDTA, Ethylenediaminetetraacetic acid calcium]
concentration at which proliferation of microorganisms is strongly inhibited [1]: 700 ppm
recovery of sweet taste [2]: recover immediately afterwards
survival of fish ([3]; in vivo): lived for many days
time after which fish did not die ([3]; in vivo): ≥ 10 days
toxicity / safety to host cells ([3]; in vivo): highly safe
survival of fish in CuCl2 with chelator [4]: will not die after several weeks
appearance of water after 6 days ([5]; calcium): clear; also recorded: transparent
fish outcome after 6 days ([5]; calcium): lived; also recorded: did not die
amount used by adults in 24 hours without side effects [6]: under 120 g

triethylenetetramine diethylenetriaminepentaacetate
appearance of metallic Cu suspension [7]: metallic Cu suspension will not appear
volume that completely dissolves Zn-blood complex suspension ([8]; concentration of solution not given, suspension from 1.4 ml 0.1% ZnCl2 in 100 ml 0.9% NaCl with 1% blood): 1.2 mL
amount needed to completely dissolve Zn-blood complex suspension, compared with lysine phosphate/lysine chloride/arginine phosphate/arginine chloride ([8]; suspension with 2 ppm ZnCl2): tens to hundreds of times lower
concentration at which proliferation of microorganisms is strongly inhibited [1]: 100 ppm
survival of mice fed flocoumafen [9]: after many days the mice still lived
survival of fish ([3]; 2000 ppm triethylenetetramine diethylnenepentaacetate / 3000 ppm Mg EDTA / 2000 ppm Cu EDTA / 12000 ppm Ca EDTA, mixtures at concentrations in label): lived for many days
survival of fish in CuCl2 with chelator [4]: will not die after several weeks
appearance of water after 6 days [5]: clear; also recorded: transparent
fish outcome after 6 days [5]: lived; also recorded: did not die
concentration in host blood/tissue fluid/alveolar fluid above which ability to inhibit/kill pathogenic bacteria far exceeds Bactrim 10 ppm/Ampicillin 20 ppm ([5]; in vivo): above 60 ppm
time until headache symptoms significantly reduced [10]: about 2 hours
survival of fish with Alpha Cypermethrin ([11]; 0.2 ppm Alpha Cypermethrin + 50-300 ppm chelator): lived for many days
survival of fish with Methylamine Avermectin ([11]; 0.2 ppm Methylamine Avermectin + 50-300 ppm chelator): lived for many days
survival of fish with Bromadiolone ([11]; 0.3 ppm Bromadiolone + 50-300 ppm chelator): lived for many days
survival of fish with phenylperazole ([11]; 1.0 ppm phenylperazole + 50-300 ppm chelator): lived for many days
survival of fish with flocoumafen ([11]; 1.25 ppm flocoumafen + 50-300 ppm chelator): lived for many days (up to weeks)
survival of fish with Emamectin benzoate ([11]; 2.5 ppm Emamectin benzoate + 50-300 ppm chelator): lived for many days
survival of fish with Nereistoxin ([11]; 5 ppm Nereistoxin + 50-300 ppm chelator): lived for many days (up to weeks)
dry eyes/eye pain symptoms a few minutes after instilling [12]: no longer exist
red eyes symptoms [12]: decrease after a few hours
concentration that inactivates toxins/neurotoxins while preventing proliferation of microorganisms [13]: over 30 ppm
